Experimental data from US9808445B2, “Factor IXa inhibitors” (Merck Sharp & Dohme Corp., priority 2014, dated 2017).
Where a name gives a salt, the structure may show the parent alone.

Each compound was assayed against human factor IXa (Homo sapiens (Human), UniProt P00740) (assay: Determination of inhibitory activity against factor IXa (fluorogenic substrate SPECTROFLUOR FIXa)). Details: Factor IXa enzyme assay human.
Type: biochemical
Protocol: Inhibitory activity against factor IXa was tested using the substrate SPECTROFLUOR FIXa (american diagnostica inc.; 500 West Avenue, Stamford, Conn. 06902 USA; Pr. No. 299F) and human factor IXa (american diagnostica inc.; Pr. No. 449b). Test substances were dissolved in buffer A (50 mM α,α,α-tris (hydroxymethyl) methylamine (Tris), 100 mM NaCl, 5 mM CaCl2, 15% (v/v) ethylene glycol, pH 8.0) were mixed with factor IXa (0.1 μg/ml final concentration). The enzyme reaction was started by addition of SPECTROFLUOR FIXa (100 μM final concentration). After incubation for 60 minutes at room temperature, the reaction was stopped by the addition of 20% (v/v) acetic acid solution, and then the fluorescence value was measured (Excitation Wavelength: 355 nm, Emission Wavelength; 460 nm) in a microtiter plate reader (ARVO 1420 Multilabel Counter; PerkinElmer).
The IC50 was calculated from a dilution series of the test substance with the aid of the software, Symyx Assay Explorer (Symyx Technologies, Inc.).

human factor IXa, sequence (P00740 227-461): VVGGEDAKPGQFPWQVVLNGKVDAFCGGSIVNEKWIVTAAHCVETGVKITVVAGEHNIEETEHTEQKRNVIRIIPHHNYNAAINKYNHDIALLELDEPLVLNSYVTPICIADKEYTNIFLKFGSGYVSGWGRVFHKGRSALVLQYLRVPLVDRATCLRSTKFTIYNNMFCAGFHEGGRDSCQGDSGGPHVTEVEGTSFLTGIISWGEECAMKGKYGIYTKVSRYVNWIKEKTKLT
human factor IXa, sequence (P00740 47-191 partner): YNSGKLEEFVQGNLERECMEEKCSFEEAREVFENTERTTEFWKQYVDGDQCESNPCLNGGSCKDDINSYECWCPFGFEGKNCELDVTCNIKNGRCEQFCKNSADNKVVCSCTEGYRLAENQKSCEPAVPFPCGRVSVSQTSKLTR

IC50 [µM]	Compound
≤ 0.1	Cc1cc(N2C[C@@H]3CC[C@H]2[C@@H]3NC(=O)c2c(Cl)cc(-n3cnc(C)n3)cc2Cl)c2onc(N)c2c1 (relative stereo) [Example 3, N-((1S*,4S*,7R*)-2-(3-Amino-5-methylbenzo[d]isoxazol-7-yl)-2-azabicyclo[2.2.1]heptan-7-yl)-2,6-dichloro-4-(3-methyl-1H-1,2,4-triazol-1-yl)benzamide]
≤ 0.1	Nc1noc2c(N3C[C@@H]4CC[C@H]3[C@@H]4NC(=O)c3ccc(-n4cnc(CCO)c4)cc3Cl)ncc(Cl)c12 (relative stereo) [Example 14, N-((1S*,4S*,7R*)-2-(3-Amino-4-chloroisoxazolo[5,4-c]pyridin-7-yl)-2-azabicyclo[2.2.1]heptan-7-yl)-2-chloro-4-(4-(2-hydroxyethyl)-1H-imidazol-1-yl)benzamide]
≤ 0.1	Nc1noc2c(N3C[C@@H]4CC[C@H]3[C@@H]4NC(=O)c3ccc(-c4ccc(=O)n(CCO)c4)cc3Cl)ncc(Cl)c12 (relative stereo) [Example 23, N-((1S*,4S*,7R*)-2-(3-Amino-4-chloroisoxazolo[5,4-c]pyridin-7-yl)-2-azabicyclo[2.2.1]heptan-7-yl)-2-chloro-4-(1-(2-hydroxyethyl)-6-oxo-1,6-dihydropyridin-3-yl)benzamide]
≤ 0.1	Nc1noc2c(N3C[C@@H]4CC[C@H]3[C@@H]4NC(=O)c3ccc(-n4cnnc4)cc3Cl)cccc12 (relative stereo) [Example 1, N-((1S*,4S*, 7R*)-2-(3-Aminobenzo[d]isoxazol-7-yl)-2-azabicyclo[2.2.1]heptan-7-yl)-2-chloro-4-(4H-1,2,4-triazol-4-yl)benzamide]
≤ 0.1	Cc1cc2c(N)noc2c(N2C[C@@H]3CC[C@H]2[C@@H]3NC(=O)c2ccc(-n3cc(CCO)nn3)cc2Cl)n1 (relative stereo) [Example 15, N-((1S*,4S*,7R*)-2-(3-Amino-5-methylisoxazolo[5,4-c]pyridin-7-yl)-2-azabicyclo[2.2.1]heptan-7-yl)-2-chloro-4-(4-(2-hydroxyethyl)-1H-1,2,3-triazol-1-yl)benzamide]
0.1 to 1	Cc1ncn(-c2ccc(C(=O)NC3C4CCC3N(c3ncc(Cl)c5c(N)noc35)C4)c(Cl)c2)n1 (single isomer, unassigned) [Example 7.2, N-((1S*,4S*,7R*)-2-(3-Amino-4-chloroisoxazolo[5,4-c]pyridin-7-yl)-2-azabicyclo[2.2.1]heptan-7-yl)-2-chloro-4-(3-methyl-1H-1,2,4-triazol-1-yl)benzamide]
≤ 0.1	Cc1cc2c(N)noc2c(N2C[C@@H]3CC[C@H]2[C@@H]3NC(=O)c2ccc(-n3cnnc3C(F)(F)F)cc2Cl)n1 (relative stereo) [Example 26, N-((1S*,4S*,7R*)-2-(3-Amino-5-methylisoxazolo[5,4-c]pyridin-7-yl)-2-azabicyclo[2.2.1]heptan-7-yl)-2-chloro-4-(3-(trifluoromethyl)-4H-1,2,4-triazol-4-yl)benzamide]
≤ 0.1	Cc1cc2c(N)noc2c(N2C[C@@H]3CC[C@H]2[C@@H]3NC(=O)c2ccc(-c3cnc(=O)n(C)c3)cc2Cl)n1 (relative stereo) [Example 27, N-((1S*,4S*,7R*)-2-(3-Amino-5-methylisoxazolo[5,4-c]pyridin-7-yl)-2-azabicyclo[2.2.1]heptan-7-yl)-2-chloro-4-(1-methyl-2-oxo-1,2-dihydropyrimidin-5-yl)benzamide TFA salt]
≤ 0.1	Cn1cc(-c2ccc(C(=O)N[C@@H]3[C@H]4CC[C@@H]3N(c3nc(C#N)cc5c(N)noc35)C4)c(Cl)c2)ccc1=O (relative stereo) [Example 25, N-((1S*,4S*,7R*)-2-(3-Amino-5-cyanoisoxazolo[5,4-c]pyridin-7-yl)-2-azabicyclo[2.2.1]heptan-7-yl)-2-chloro-4-(1-methyl-6-oxo-1,6-dihydropyridin-3-yl)benzamide]
